Where no end group is shown, it is not given here. Side-chain parts run from the residue outwards. CX1X1X1RKRLDRIAR‑NH2 = not defined here; bMB = bis-maleimidobutane
Tests used:
Format in all cases: cell-based
[1] = system: C3H10T1/2 mouse pluripotent stem cells; test: Cell growth study, MTS relative cell number, C3H10T1/2 cells; conditions: for % OF CONTROL VALUE / MEAN ABSORBANCE: 3 days in culture, MTS
Method: (§1) The synthetic branched peptide construct of Example 4 was tested in cell growth studies, to determine the ability of the synthetic branched peptide construct to stimulate cell growth. Cell growth was monitored using a commercially available kit (Promega Corporation, Madison, Wis.) based on a tetrazolium compound (3-(4,5-dimethylthiazol-2-yl)-5-(3-carboxymethoxyphenyl)-2-(4-sulfophenyl)-2H-tetrazolium, inner salt (MTS). Aliquots of 10^3 cells were seeded into wells of 96-well plates and allowed to attach. The medium was then replaced with a low serum medium containing between 0 and 10 μg/mL of the synthetic branched peptide construct of Example 4. After 3 days in culture, the relative cell number was monitored using MTS following the directions of the manufacturer. Statistical significance was determined using ANOVA followed by post-hoc multiple comparisons versus control group (Dunnett's Method).
(§2) MC3T3E1 osteoblastic cells, C3H10T1/2 mouse pluripotent stem cells, C2C12 murine myoblasts, and cells from a human fetal osteoblast cell line (hFOB) were obtained from the American Type Culture Collection (Manassas, Va.) and were maintained in DMEM:F12 medium containing newborn calf serum and antibiotics. MC3T3E1, C3H10T1/2, and hFOB cells were positive for growth induction by synthetic branched peptide construct of […] as shown in Table 3 below. The effective concentration was between 1 and 10 μg/mL. C2C12 was negative for growth using the synthetic branched peptide construct of Example 4.

[2] = system: MC3T3E1 osteoblastic cells; test: Cell growth study, MTS relative cell number, MC3T3E1 cells; conditions: for % OF CONTROL VALUE / MEAN ABSORBANCE: 3 days in culture, MTS
Method: as §1, §2

[3] = system: human fetal osteoblast cell line (hFOB); test: Cell growth study, MTS relative cell number, hFOB cells; conditions: for % OF CONTROL VALUE / MEAN ABSORBANCE: hFOB, 3 days in culture, MTS
Method: as §1, §2

C2C12 murine myoblasts = test: Cell growth study, MTS relative cell number, C2C12 cells; conditions: for % OF CONTROL VALUE / MEAN ABSORBANCE: 3 days in culture, MTS
Method: as §1, §2

NH2-LYVDFSDVGWNDWC(bMB-CX1X1X1RKRLDRIAR-amide)-AISMLYLDENEKVVL-amide (chain 1 H-LYVDFSDVGWNDWC([bMB-CX1X1X1RKRLDRIAR‑NH2]); chain 2 AISMLYLDENEKVVL-NH2; reading uncertain; also: chains 1 and 2 form one continuous backbone (C14 of chain 1 peptide-bonded to A1 of chain 2), printed as NH2-LYVDFSDVGWNDWC(bMB-CX1X1X1RKRLDRIAR-amide)-AISMLYLDENEKVVL-amide) [Example 4, heterodimeric BMP-2 analog branched via cysteine and 1,4-bis-maleimidobutane; X1 is 6-aminohexanoic acid]
% OF CONTROL VALUE ([1]; C3H10T1/2, 0.5 μg/mL): 147% | MEAN ABSORBANCE ([1]; C3H10T1/2, 0.5 μg/mL): 0.41 | % OF CONTROL VALUE ([1]; C3H10T1/2, 1 μg/mL): 152% | MEAN ABSORBANCE ([1]; C3H10T1/2, 1 μg/mL): 0.42 | % OF CONTROL VALUE ([1]; C3H10T1/2, 2 μg/mL): 158% | MEAN ABSORBANCE ([1]; C3H10T1/2, 2 μg/mL): 0.44 | % OF CONTROL VALUE ([1]; C3H10T1/2, 5 μg/mL): 156% | MEAN ABSORBANCE ([1]; C3H10T1/2, 5 μg/mL): 0.43 | % OF CONTROL VALUE ([1]; C3H10T1/2, 10 μg/mL): 144% | MEAN ABSORBANCE ([1]; C3H10T1/2, 10 μg/mL): 0.40 | growth induction ([1]; C3H10T1/2 cells, 0 to 10 μg/mL, 3 days): positive | % OF CONTROL VALUE ([2]; MC3T3E1, 0.5 μg/mL): 103% | MEAN ABSORBANCE ([2]; MC3T3E1, 0.5 μg/mL): 0.74 | % OF CONTROL VALUE ([2]; MC3T3E1, 1 μg/mL): 99% | MEAN ABSORBANCE ([2]; MC3T3E1, 1 μg/mL): 0.71 | % OF CONTROL VALUE ([2]; MC3T3E1, 2 μg/mL): 138% | MEAN ABSORBANCE ([2]; MC3T3E1, 2 μg/mL): 0.99 | % OF CONTROL VALUE ([2]; MC3T3E1, 5 μg/mL): 133% | MEAN ABSORBANCE ([2]; MC3T3E1, 5 μg/mL): 0.96 | % OF CONTROL VALUE ([2]; MC3T3E1, 10 μg/mL): 134% | MEAN ABSORBANCE ([2]; MC3T3E1, 10 μg/mL): 0.96 | growth induction ([2]; MC3T3E1 cells, 0 to 10 μg/mL, 3 days): positive | growth induction ([3]; hFOB cells, 0 to 10 μg/mL, 3 days): positive | % OF CONTROL VALUE ([3]; 0.5 μg/mL): 121% | MEAN ABSORBANCE ([3]; 0.5 μg/mL): 0.58 | % OF CONTROL VALUE ([3]; 1 μg/mL): 131% | MEAN ABSORBANCE ([3]; 1 μg/mL): 0.62 | % OF CONTROL VALUE ([3]; 2 μg/mL): 135% | MEAN ABSORBANCE ([3]; 2 μg/mL): 0.64 | % OF CONTROL VALUE ([3]; 5 μg/mL): 127% | MEAN ABSORBANCE ([3]; 5 μg/mL): 0.60 | % OF CONTROL VALUE ([3]; 10 μg/mL): 130% | MEAN ABSORBANCE ([3]; 10 μg/mL): 0.62 | % OF CONTROL VALUE (C2C12 murine myoblasts; C2C12, 0.5 μg/mL): 99% | MEAN ABSORBANCE (C2C12 murine myoblasts; C2C12, 0.5 μg/mL): 0.30 | % OF CONTROL VALUE (C2C12 murine myoblasts; C2C12, 1 μg/mL): 101% | MEAN ABSORBANCE (C2C12 murine myoblasts; C2C12, 1 μg/mL): 0.30 | % OF CONTROL VALUE (C2C12 murine myoblasts; C2C12, 2 μg/mL): 99% | MEAN ABSORBANCE (C2C12 murine myoblasts; C2C12, 2 μg/mL): 0.30 | % OF CONTROL VALUE (C2C12 murine myoblasts; C2C12, 5 μg/mL): 99% | MEAN ABSORBANCE (C2C12 murine myoblasts; C2C12, 5 μg/mL): 0.30 | % OF CONTROL VALUE (C2C12 murine myoblasts; C2C12, 10 μg/mL): 90% | MEAN ABSORBANCE (C2C12 murine myoblasts; C2C12, 10 μg/mL): 0.27 | growth induction (C2C12 murine myoblasts; C2C12 cells, 0 to 10 μg/mL, 3 days): negative
